For the assay, the target named is Oxoeicosanoid receptor 1 (Homo sapiens, UniProt Q8TDS5). Put plainly: Antagonist activity at OXE receptor in human neutrophils assessed as inhibition of calcium mobilization by fluorescence assay. The assay is classed as functional.
Oxoeicosanoid receptor 1, sequence (Q8TDS5 whole entry): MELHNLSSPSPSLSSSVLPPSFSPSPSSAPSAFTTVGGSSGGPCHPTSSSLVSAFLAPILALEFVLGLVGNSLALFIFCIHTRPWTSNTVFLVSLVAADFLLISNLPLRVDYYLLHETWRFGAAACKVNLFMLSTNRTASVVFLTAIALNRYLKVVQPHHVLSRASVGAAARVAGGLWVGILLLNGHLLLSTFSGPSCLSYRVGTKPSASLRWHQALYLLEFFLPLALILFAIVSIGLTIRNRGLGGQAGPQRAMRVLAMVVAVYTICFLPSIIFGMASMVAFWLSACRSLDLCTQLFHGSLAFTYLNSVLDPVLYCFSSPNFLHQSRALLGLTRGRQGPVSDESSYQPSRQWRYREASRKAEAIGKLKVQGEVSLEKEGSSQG

Take `CCCCCCc1c(C(=O)C[C@@H](C)CC(=O)O)c2cc(Cl)ccc2n1C`: the concentration for half-maximal inhibition (IC50) was 2.7 nM.

Turning to `CCCCCCc1c(C(=O)C[C@H](C)CC(=O)O)c2cc(Cl)ccc2n1C`, the IC50 turned out to be 6 nM.

In general, IC50 refers to the concentration at which inhibition is half-maximal.

The values above are taken from ChEMBL document CHEMBL3352521, “Two Potent OXE-R Antagonists: Assignment of Stereochemistry” (ACS Med Chem Lett, 2014).
